Measured values as given in patent US20020111386A1, “Apparatus for pulmonary delivery of drugs with simultaneous liquid lavage and ventilation” (priority 1989, published 2002).

System: anesthetized and tracheotomized young cats
Assay: Pulmonary administration of drugs dispersed in PFC liquid during liquid ventilation: cardiovascular and airway smooth muscle effects
Assay type: in vivo, cat
Conditions: for effect on airway on addition to perfluorocarbon ventilation liquid: added to a perfluorocarbon ventilation liquid
Protocol: When testing the dose-dependency effect of the pulmonary administration of acetylcholine [ACh], the effect after the administration of the drug (expressed as a percentage of the baseline), as a function of the concentration of the drug, was monitored.
Here, the ACh was dispersed in the PFC liquid medium. The initial amount of ACh dispersed in the PFC liquid was 0.01 mg per each kilogram of the laboratory animal's body weight.
(§1) Each of the animals tested had at least one of the following parameters recorded before, during and after the pulmonary administration of the drug: (a) heart rate (bpm), (b) mean arterial pressure (mm Hg), and (c) tracheal pressure (cm water). The averages for each of these recorded parameters were then calculated, depending upon the number of cats tested. These calculated values are plotted on the graph in FIG. 35.
In addition to the above, the following parameters were also monitored and/or controlled: tidal volume, inspiratory and expiratory liquid flow rate, arterial chemistry, pulmonary compliance and resistance, and/or breathing frequency.
For each incremental increase, the animals tested had at least one of the aforementioned parameters recorded before and after the pulmonary administration of the drug.
Also for each incremental increase, the averages for each recorded parameter were calculated and plotted on the graph in FIG. 35.
Another way in which the effect of the pulmonary administration of ACh was tested was by monitoring carotid pressure, as a function of time, before, during and after the pulmonary administration of the drug. Here, 0.6 mg/kg of Ach was dispersed in the PFC liquid medium.
Yet another way in which the effect of the pulmonary administration of ACh was tested was by monitoring tracheal pressure, as a function of time, before, during and after the pulmonary administration of the drug.
Here, 0.6 mg/kg of ACh was dispersed in the PFC liquid medium.
When testing the dose-dependency effect of the pulmonary administration of epinephrine [Epi], the effect after the administration of the drug (expressed as a percentage of the baseline), as a function of the concentration of the drug, was monitored.
Here, the Epi was dispersed in the PFC liquid medium. The initial amount of Epi dispersed in the PFC liquid was 0.01 mg Per each kilogram of the laboratory animal's body weight.
as §1, with “before” for “before, during”, “36.” for “35.”
Also for each incremental increase, the averages for each recorded parameter were calculated and plotted on the graph in FIG. 36.
Another way in which the effect of the pulmonary administration of Epi was tested was by monitoring the change in mean arterial pressure and heart rate resulting from drug delivery.
Here, 0.50 mg/kg of Epi was dispersed in the PFC liquid medium.
When testing the dose-dependency effect of the pulmonary administration of priscoline [P], the effect after the administration of the drug (expressed as a percentage of the baseline), as a function of the concentration of the drug, was monitored.
Here, the P was dispersed in the PFC liquid medium. The initial amount of P dispersed in the PFC liquid was 4 mg.
Each of the animals tested weighed approximately 3 kg. Each of these test animals had at least one of the following parameters recorded before and after the pulmonary administration of the drug: (a) heart rate (bpm), (b) mean arterial pressure (mm Hg), and (c) right ventricular pressure.
The averages for each of the aforementioned recorded parameters were then calculated, depending upon the number of cats tested. These calculated values are plotted on the graph in FIG. 37. […]

[1] = Epi 0.01 to 1.0 mg/kg in inspired PFC liquid, FIG. 36
[2] = P 4 mg to 12 mg in inspired PFC liquid, animals approx. 3 kg, FIG. 37

CC(=O)OCC[N+](C)(C)C [ACh, acetylcholine]
increase in tracheal pressure after drug administration (0.6 mg/kg ACh in PFC liquid): about 6 mm Hg
total time necessary to decrease the carotid pressure by about 40 mm Hg (0.6 mg/kg ACh in PFC liquid): about 10 seconds
total time necessary to increase the tracheal pressure (cm water) by about 5 mm Hg (0.6 mg/kg ACh in PFC liquid): about 20 seconds
decrease in carotid pressure after drug administration (0.6 mg/kg ACh in PFC liquid, via endotracheal tube): about 40 mm Hg

CNC[C@H](O)c1ccc(O)c(O)c1 [Epi, epinephrine]
decrease in tracheal pressure after drug administration (0.50 mg/kg Epi in PFC liquid): 31%
increase in heart rate after drug administration (0.50 mg/kg Epi in PFC liquid): 33%
heart rate, dose-dependent response (percentage of baseline) [1]: increases
mean arterial pressure, dose-dependent response (percentage of baseline) [1]: increases
peak tracheal pressure, dose-dependent response (percentage of baseline) [1]: decrease
effect on airway on addition to perfluorocarbon ventilation liquid: Airway dilation

c1ccc(CC2=NCCN2)cc1 [P, priscoline]
decrease in carotid pressure after drug administration (12 mg P in PFC liquid): about 30 mm Hg
onset of decrease in carotid pressure after administration (12 mg P in PFC liquid): almost instantaneously
total time necessary to decrease the carotid pressure by about 30 mm Hg (12 mg P in PFC liquid): about 10 seconds
heart rate, dose-dependent response (percentage of baseline) [2]: remained fairly constant
mean arterial pressure, dose-dependent response (percentage of baseline) [2]: decreases
right ventricular pressure, dose-dependent response (percentage of baseline) [2]: decreases

CC(C)NCC(O)c1ccc(O)c(O)c1 (centres unmarked) [isoproterenol]
effect on airway on addition to perfluorocarbon ventilation liquid: Airway dilation
